Data on five compounds can be found in patent US10081602B2, “Opioid agonists and uses thereof” (Nektar Therapeutics, priority 2013, dated 2018).

The target in assay [1] is human mu (MOR) opioid receptor (Homo sapiens (Human), UniProt P35372). Kind of assay: Radioligand competition binding assay, mu opioid receptor. The conditions noted are these: [3H]Naloxone; for inhibition at 10 µM: read-out: Mu receptor % inhibition at single concentration. As for the experimental part:
The binding affinities of certain compounds of the present invention were evaluated using radioligand binding assays in membranes prepared from CHO-K1 cells expressing recombinant human kappa (KOR) or mu (MOR) opioid receptors.
Competition binding experiments were conducted by incubating membrane protein to equilibrium in triplicate in the presence of a fixed concentration of radioligand and increasing concentrations of test compound for evaluation of binding to KOR or single concentration (10 μM) of test compound for evaluation of binding to MOR in 101 μL final volume. The radioligands used were specific for each receptor type, and the assay conditions are described in Table 1. Following incubations, the membranes were rapidly filtered through GF/B filter plate (presoaked with 0.5% polyethyleneimine), washed five times with cold 50 mM Tris-HCl, pH 7.5, and the bound radioactivity was then measured by liquid scintillation counting. Non-specific binding was measured in the presence of excess ligand; this value was subtracted from the total binding to yield the specific binding at each test concentration.
Ki (affinity of test compound) was obtained using the Cheng Prusoff correction using experimental Kd (affinity of radioligand) values that were previously determined under these assay conditions. For MOR binding, compounds were tested at one concentration, 10 μM, to evaluate its ability to inhibit specific radioligand binding. The values are expressed as percent inhibition of specific binding and greater than 50% inhibition of binding was considered to be significant.
With respect to determining MOR binding, an approach similar to one used for KOR binding was used.

Assay [2] deals with acetic acid-induced writhing (visceral pain) in mice. Kind of assay: Acetic acid writhing (AAW) analgesic assay. The assay is classed as in vivo. As for the experimental part:
An analgesic assay was used to determine whether a given compound can reduce and/or prevent visceral pain in mice. The assay utilizes Swiss Albino or CD-1 male mice (5-10 mice per group), each mouse being approximately 0.015-0.030 kg on the study day. Mice were treated according to standard protocols.
The animal was given an intraperitoneal (IP) injection of an irritant (acetic acid) that induces “writhing” which may include: contractions of the abdomen, twisting and turning of the trunk, arching of the back and the extension of the hindlimbs. Mice are given a single IP injection (0.1 mL/10 g bodyweight) of a 0.5% acetic acid solution. After the injection the animals were returned to their observation enclosure and their behavior was observed. Contractions were counted between 0 and 20 minutes after the injection. The animals were used once. In certain instances, the test articles were administered at multiple doses to determine a dose response curve.
Table 4 provides the results for certain compounds of the present invention that were administered subcutaneously. Table 5 provides the results for certain compounds of the present invention that were administered orally.
For orientation: In writhing tests, fewer writhes than in controls are read as antinociception.

In the next assay the target is MOR (Homo sapiens (Human), UniProt P35372). Kind of assay: cAMP accumulation assay in forskolin-stimulated CHO-K1 cells stably expressing MOR. The assay is classed as cell-based. Here is the method:
Inhibition of cAMP accumulation by select compounds was measured in forskolin-stimulated CHO-K1 cells stably expressing KOR. CHO-K1 cells stably expressing KOR were harvested using Invitrogen Cell Dissociation Buffer, and then centrifuged at 1200 rpm for five minutes. The supernatant was aspirated and cells were resuspended in assay buffer to a density of 4×10^5 cells/mL. 25 μL of cells were added into a white half-area 96 well plate. Fourteen point serial dilutions of test compounds were carried out in assay buffer (PBS with 0.5 mM IBMX). Ketazocine was used as a positive control for each assay. 12.5 μL of compound was added to the cells in duplicate for each test concentration. The cells were then stimulated with 12.5 μL forskolin at a final concentration 20 μM. Cells were incubated for 45 minutes in a 37° C., 5% CO2 water jacketed incubator. CisBio HTRF cAMP assay reagent was used for cAMP quantitation. Two hours after substrate addition, signal at 665/615 nm was measured using the Perkin Elmer Victor X4 HTRF reader. Data analysis was done using GraphPad Prism, sigmoidal dose-response (variable slope) curve fitting.
Using a similar approach, inhibition of cAMP accumulation by select compounds was also determined in forskolin-simulated CHO-K1 cells stably expressing MOR (wherein for this assay a density of 8×10^5 cells/mL was used and the positive control was DAMGO). […]
In general terms: Cyclic AMP is a second messenger, typically raised through Gs and lowered through Gi signalling.

With `COCCOCCOCCOCCOCCOCCOCCNc1ccc2c(c1)[C@]1(C)CCN(CC3CC3)[C@H](C2=O)[C@@H]1C` [Example 3, (2S,6R,11R)-3-(Cyclopropylmethyl)-8-(2,5,8,11,14,17,20-heptaoxadocosan-22-ylamino)-6,11-dimethyl-3,4,5,6-tetrahydro-2,6-methano-3-benzazocin-1 (2H)-One], the inhibition at 10 µM in assay [1] turned out to be 80.6%.

As to `COCCOCCOCCOc1ccc2c(c1)[C@]1(C)CCN(CC3CC3)[C@H](C2=O)[C@@H]1C` [Example 4, (2S,6R,11R)-3-(Cyclopropylmethyl)-8-{2-[2-(2-methoxyethoxy)ethoxy]ethoxy}-6,11-dimethyl-3,4,5,6-tetrahydro-2,6-methano-3-benzazocin-1(2H)-One], the “AAW % Efficacy” value in assay [2] (oral, 200 mg/kg) came out at 3.8%; in assay [2] (subcutaneous, 3 mg/kg), 0.0%; in assay [2] (subcutaneous, 10 mg/kg), 39.7%; in assay [2] (subcutaneous, 30 mg/kg), 100.0%. In addition, the inhibition at 10 µM in assay [1] came to 89.2%.

Consider `COCCOCCOCCOCCOCCOCCOCCOc1ccc2c(c1)[C@]1(C)CCN(CC3CC3)[C@H](C2=O)[C@@H]1C` [Example 6, (2S,6R,11R)-3-(Cyclopropylmethyl)-8-(2,5,8,11,14,17,20-heptaoxadocosan-22-yloxy)-6,11-dimethyl-3,4,5,6-tetrahydro-2,6-methano-3-benzazocin-1(2H)-One], for which the inhibition at 10 µM in assay [1] turned out to be 48.6%.

Consider `COCCOCCOCCOCCOCCO[C@@H]1c2ccc(O)cc2[C@]2(C)CCN(CC3CC3)[C@H]1[C@@H]2C` [Example 25, (1R,2S,6R,11R)-1-(2,5,8,11,14-pentaoxahexadecan-16-yloxy)-3-(cyclopropylmethyl)-6,11-dimethyl-1,2,3,4,5,6-hexahydro-2,6-methanobenzo[d]azocin-8-ol], for which, in assay [1] (CHO-K1 membranes), the Ki (commonly a dissociation constant, usually derived from enzyme kinetics or from competition with a known ligand) was 3920 nM. Further, a half-maximal response on MOR (EC50) required 1210 nM.

As for `C[C@H]1[C@H]2C(=O)c3ccc(O)cc3[C@]1(C)CCN2CC1CC1` [Ketazocine, (2S,6R,11R)-3-(cyclopropylmethyl)-8-hydroxy-6,11-dimethyl-3,4,5,6-tetrahydro-2,6-methanobenzo[d]azocin-1(2H)-one, reference compound], the “AAW % Efficacy” value in assay [2] (oral, 0.1 mg/kg) was determined as 12.8%; in assay [2] (oral, 1 mg/kg), 34.5%; in assay [2] (oral, 10 mg/kg), 58.9%; in assay [2] (oral, 100 mg/kg), 100.0%; in assay [2] (subcutaneous, 0.01 mg/kg), 10.57%; in assay [2] (subcutaneous, 0.1 mg/kg), 50.03%. Also, the “AAW % Efficacy” value in assay [2] (subcutaneous, 1 mg/kg) was 100.00%. The inhibition at 10 µM in assay [1] was found to be 99.2%.
